From patent publication US10611740B2, “Aryl dihydro-2H-benzo[b][1,4]oxazine sulfonamide and related compounds for use as agonists of RORγ and the treatment of disease” (Lycera Corporation, priority 2015, dated 2020)

Key:
RORγ-LBD = molecular target: T1, RORγ-LBD (Homo sapiens, UniProt P51449); test: RORγ-Ligand Binding Domain (LBD) TR-FRET Assay; type: biochemical;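 for TR-FRET Assay Max Response: 665/615 nm ratio relative to signal without ursolic acid or compound set at 100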
T1 construct: made in house; host or cells: SF9 cells (baculovirus)
T1 sequence (P51449 269-508 limits assumed): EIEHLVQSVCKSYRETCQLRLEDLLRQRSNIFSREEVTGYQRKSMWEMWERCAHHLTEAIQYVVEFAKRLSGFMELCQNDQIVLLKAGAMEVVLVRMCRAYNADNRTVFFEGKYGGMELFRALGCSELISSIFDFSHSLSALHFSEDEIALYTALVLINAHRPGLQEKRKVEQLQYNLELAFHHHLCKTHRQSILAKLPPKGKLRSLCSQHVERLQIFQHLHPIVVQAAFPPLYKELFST
Outline: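 Lysate from SF9 cells expressing His-RORγ-LBD is diluted to about 3 nM final in 50 mM Tris pH 7.0 assay buffer. A biotin-tagged SRC1 LXXLL peptide goes in at 200 nM final, plus ursolic acid at 2 μM final. Test compounds carry 1% DMSO final; signal read by TR-FRET.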

Gal4-RORγ-LBD = molecular target: T2, Gal4-RORγ-LBD (Homo sapiens, UniProt P51449); test: Gal4-RORγ Luciferase Reporter Assay in HEK-293T Cells; type: cell-based; settings: HEK-293 cells, luciferase reporter, with 2 μM ursolic acid
T2 construct: expressed in transfected cells; host or cells: HEK-293 cells (pcDNA3.1neo plasmid)
T2 sequence (P51449 269-508 limits assumed): T1 sequence (P51449 269-508 limits assumed)
Outline: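 In transfected HEK-293 cells (Gal4-RORγ-LBD, Gal4-luciferase), test agents with 2 μM ursolic acid were incubated overnight at 37 °C before luminescent detection. Values are relative to the ursolic-acid-free, compound-free signal (100).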

SMILES | EC50 (RORγ-LBD) | TR-FRET Assay Max Response (RORγ-LBD) | EC50 (Gal4-RORγ-LBD) | Gal4-RORγ Assay Max Response (Gal4-RORγ-LBD)
COc1cccc(-c2cc(F)c3c(c2)N(S(=O)(=O)c2cccc(C(F)(F)F)c2)C[C@H](CCC(=O)N2CCC(C(=O)O)CC2)O3)c1 [Compound 23H, (S)-1-(3-(8-fluoro-6-(3-methoxyphenyl)-4-((3-(trifluoromethyl)phenyl)sulfonyl)-3,4-dihydro-2H-benzo[b][1,4]oxazin-2-yl)propanoyl)piperidine-4-carboxylic acid] | < 500 nM | **** (The symbol “****” indicates a value greater than 200) | < 500 nM | ** (The symbol “**” indicates a value in the range of greater than 90 to 150)
O=C(O)C1CCN(C(=O)CC[C@H]2CN(S(=O)(=O)c3cccc(C(F)(F)F)c3)c3cc(-c4cccc(F)c4F)cc(F)c3O2)CC1 [Compound 23I, (S)-1-(3-(6-(2,3-difluorophenyl)-8-fluoro-4-((3-(trifluoromethyl)phenyl)sulfonyl)-3,4-dihydro-2H-benzo[b][1,4]oxazin-2-yl)propanoyl)piperidine-4-carboxylic acid] | < 500 nM | **** (The symbol “****” indicates a value greater than 200) | < 500 nM | ** (The symbol “**” indicates a value in the range of greater than 90 to 150)
O=C(O)CNC(=O)CC[C@H]1CN(S(=O)(=O)c2cccc(C(F)(F)F)c2)c2cc(-c3cccc(C(F)(F)F)n3)ccc2O1 [Compound 23J, (S)-(3-(4-((3-(trifluoromethyl)-phenyl)sulfonyl)-6-(6-(trifluoromethyl)pyridin-2-yl)-3,4-dihydro-2H-benzo[b][1,4]oxazin-2-yl)propanoyl)glycine] | < 500 nM | **** (The symbol “****” indicates a value greater than 200) | 5000 to 10000 nM | *** (The symbol “***” indicates a value in the range of greater than 150 to 200)
COc1cccc(-c2ccc3c(c2)N(S(=O)(=O)c2cccc(C(F)(F)F)c2)C[C@H](CCC(=O)NCC(=O)O)O3)c1 [Compound 23K, (S)-(3-(6-(3-methoxyphenyl)-4-((3-(trifluoromethyl)-phenyl)sulfonyl)-3,4-dihydro-2H-benzo[b][1,4]oxazin-2-yl)propanoyl)glycine] | < 500 nM | **** (The symbol “****” indicates a value greater than 200) | 500 to 5000 nM | ** (The symbol “**” indicates a value in the range of greater than 90 to 150)
COc1cccc(-c2ccc3c(c2)N(S(=O)(=O)c2cccc(C(F)(F)F)c2)C[C@H](CCC(=O)N2CCC(C(=O)O)CC2)O3)c1 [Compound 23L, (S)-1-(3-(6-(3-methoxyphenyl)-4-((3-(trifluoromethyl)-phenyl)sulfonyl)-3,4-dihydro-2H-benzo[b][1,4]oxazin-2-yl)propanoyl)piperidine-4-carboxylic acid] | < 500 nM | **** (The symbol “****” indicates a value greater than 200) | < 500 nM | ** (The symbol “**” indicates a value in the range of greater than 90 to 150)
COc1cccc(-c2ccc3c(c2)N(S(=O)(=O)c2cccc(C(F)(F)F)c2)C[C@H](CCC(=O)N2CCS(=O)(=O)CC2)O3)c1 [Compound 23M, (S)-1-(1,1-dioxidothio-morpholino)-3-(6-(3-methoxyphenyl)-4-((3-(trifluoromethyl)phenyl)sulfonyl)-3,4-dihydro-2H-benzo[b][1,4]-oxazin-2-yl)propan-1-one] | < 500 nM | **** (The symbol “****” indicates a value greater than 200) | < 500 nM | *** (The symbol “***” indicates a value in the range of greater than 150 to 200)
O=C(CC[C@H]1CN(S(=O)(=O)c2cccc(C(F)(F)F)c2)c2cc(-c3cccc(F)c3F)ccc2O1)N1CCS(=O)(=O)CC1 [Compound 23N, (S)-3-(6-(2,3-difluorophenyl)-4-((3-(trifluoromethyl)-phenyl)sulfonyl)-3,4-dihydro-2H-benzo[b][1,4]oxazin-2-yl)-1-(1,1-dioxidothiomorpholino)propan-1-one] | < 500 nM | **** (The symbol “****” indicates a value greater than 200) | < 500 nM | *** (The symbol “***” indicates a value in the range of greater than 150 to 200)
O=C(O)C1CCN(C(=O)CC[C@H]2CN(S(=O)(=O)c3cccc(C(F)(F)F)c3)c3cc(-c4cccc(F)c4F)ccc3O2)CC1 [Compound 23P, (S)-1-(3-(6-(2,3-difluorophenyl)-4-((3-(trifluoromethyl)-phenyl)sulfonyl)-3,4-dihydro-2H-benzo[b][1,4]oxazin-2-yl)propanoyl)piperidine-4-carboxylic acid] | < 500 nM | **** (The symbol “****” indicates a value greater than 200) | < 500 nM | *** (The symbol “***” indicates a value in the range of greater than 150 to 200)
O=C(O)C1CCN(C(=O)NC[C@H]2CN(S(=O)(=O)c3cccc(C(F)(F)F)c3)c3cc(-c4cc(F)ccc4F)ccc3O2)CC1 [Compound 23Q, (S)-1-(((6-(2,5-difluorophenyl)-4-((3-(trifluoromethyl)-phenyl)sulfonyl)-3,4-dihydro-2H-benzo[b][1,4]oxazin-2-yl)methyl)carbamoyl)piperidine-4-carboxylic acid] | < 500 nM | **** (The symbol “****” indicates a value greater than 200) | 500 to 5000 nM | *** (The symbol “***” indicates a value in the range of greater than 150 to 200)
CN(CCC(=O)O)C(=O)NC[C@H]1CN(S(=O)(=O)c2cccc(C(F)(F)F)c2)c2cc(-c3cc(F)ccc3F)ccc2O1 [Compound 23R, (S)-3-(3-((6-(2,5-difluorophenyl)-4-((3-(trifluoromethyl)phenyl)-sulfonyl)-3,4-dihydro-2H-benzo[b][1,4]oxazin-2-yl)methyl)-1-methylureido)propanoic acid] | < 500 nM | **** (The symbol “****” indicates a value greater than 200) | 500 to 5000 nM | ** (The symbol “**” indicates a value in the range of greater than 90 to 150)
O=C(CC[C@H]1CN(S(=O)(=O)c2cccc(C(F)(F)F)c2)c2cc(-c3cc(F)ccc3F)ccc2O1)NC[C@H](O)C(=O)O [Compound 23S, (S)-3-(3-((S)-6-(2,5-difluoro-phenyl)-4-((3-(trifluoromethyl)-phenyl)sulfonyl)-3,4-dihydro-2H-benzo[b][1,4]oxazin-2-yl)propanamido)-2-hydroxypropanoic acid] | < 500 nM | **** (The symbol “****” indicates a value greater than 200) | 500 to 5000 nM | ** (The symbol “**” indicates a value in the range of greater than 90 to 150)
O=C(O)C1CCN(C(=O)NCC[C@H]2CN(S(=O)(=O)c3cccc(C(F)(F)F)c3)c3cc(-c4cc(F)ccc4F)ccc3O2)CC1 [Compound 23T, (S)-1-((2-(6-(2,5-difluorophenyl)-4-((3-(trifluoromethyl)phenyl)-sulfonyl)-3,4-dihydro-2H-benzo[b][1,4]oxazin-2-yl)ethyl)carbamoyl)piperidine-4-carboxylic acid] | < 500 nM | **** (The symbol “****” indicates a value greater than 200) | < 500 nM | ** (The symbol “**” indicates a value in the range of greater than 90 to 150)
O=C(O)[C@H]1CCCN1C(=O)NCC[C@H]1CN(S(=O)(=O)c2cccc(C(F)(F)F)c2)c2cc(-c3cc(F)ccc3F)ccc2O1 [Compound 23U, ((2-((S)-6-(2,5-difluorophenyl)-4-((3-(trifluoromethyl)phenyl)-sulfonyl)-3,4-dihydro-2H-benzo[b][1,4]oxazin-2-yl)ethyl)carbamoyl)-D-proline] | < 500 nM | **** (The symbol “****” indicates a value greater than 200) | < 500 nM | ** (The symbol “**” indicates a value in the range of greater than 90 to 150)
O=C(O)[C@@H]1CCCN1C(=O)NCC[C@H]1CN(S(=O)(=O)c2cccc(C(F)(F)F)c2)c2cc(-c3cc(F)ccc3F)ccc2O1 [Compound 23V, ((2-((S)-6-(2,5-difluorophenyl)-4-((3-(trifluoromethyl)phenyl)-sulfonyl)-3,4-dihydro-2H-benzo[b][1,4]oxazin-2-yl)ethyl)carbamoyl)-L-proline] | < 500 nM | **** (The symbol “****” indicates a value greater than 200) | 500 to 5000 nM | ** (The symbol “**” indicates a value in the range of greater than 90 to 150)
CN(CC(=O)O)C(=O)NCC[C@H]1CN(S(=O)(=O)c2cccc(C(F)(F)F)c2)c2cc(-c3cc(F)ccc3F)ccc2O1 [Compound 23W, (S)-N-((2-(6-(2,5-difluorophenyl)-4-((3-(trifluoromethyl)phenyl)-sulfonyl)-3,4-dihydro-2H-benzo[b][1,4]oxazin-2-yl)ethyl)carbamoyl)-N-methylglycine] | < 500 nM | **** (The symbol “****” indicates a value greater than 200) | < 500 nM | ** (The symbol “**” indicates a value in the range of greater than 90 to 150)
